We go through one molecule from ChEMBL document CHEMBL5247598 (Eur J Med Chem, 2022).

Each structure is given as a SMILES string. Calls of active or inactive are those of the source. No cut-off for these calls is given here.

What is called EC50 is the concentration at which the effect is half-maximal.

In assay [1] the test system is NCI/ADR-RES. Description: Induction of apoptosis in human NCI-ADR-RES cells assessed as late apoptotic cells at 8 uM incubated for 48 hrs in presence of doxorubicin by Annexin V-FITC and DAPI staining based flow cytometry (Rvb= 0.66 %). In kind it is functional. In general terms: Flow cytometry measures light scatter and fluorescence of single cells or particles in a stream.

Assay [2] deals with NCI/ADR-RES. Description: Reversal of P-gp-mediated multidrug resistance in human NCI-ADR-RES cells assessed as change in ABCB1 expression level at 1 to 10 uM incubated for 24 hrs by Western blot analysis. In kind it is functional, cell-based. The note with it: dose 1-10 µM. A general note: A western blot detects proteins with antibodies after separation by electrophoresis.
The test system of assay [3] is NCI/ADR-RES. Description: Induction of apoptosis in human NCI-ADR-RES cells assessed as early apoptotic cells at 3 uM incubated for 24 hrs by Annexin V-FITC and DAPI staining based flow cytometry (Rvb= 0.89 %). In kind it is functional.
Assay [4] has as its system NCI-ADR-RES. Description: Inhibition of PI3K/AKT signaling pathway in human NCI-ADR-RES cells assessed as increase in Caspase-3 level at 3 uM incubated for 24 to 48 hrs in presence of doxorubicin by Western blot analysis. Conditions: time 24-48 hrs. In kind it is cell-based.
For assay [5], the system named is HCT-8. Kind of assay: Antiproliferative activity against human Taxol resistant HCT-8 cells assessed as inhibition of cell growth at 50 uM incubated for 48 hrs by MTT assay. In kind it is functional, cell-based. In general terms: Tetrazolium dyes change colour on reduction, which living cells bring about.
Assay [6] has as its system NCI/ADR-RES. Description: Induction of apoptosis in human NCI-ADR-RES cells assessed as necrotic cells at 8 uM incubated for 48 hrs in presence of doxorubicin by Annexin V-FITC and DAPI staining based flow cytometry (Rvb= 0.55 %). In kind it is functional.
The subject of assay [7] is NCI/ADR-RES. Kind of assay: Induction of apoptosis in human NCI-ADR-RES cells assessed as necrotic cells at 3 uM incubated for 48 hrs by Annexin V-FITC and DAPI staining based flow cytometry (Rvb= 0.55 %). In kind it is functional.
Assay [8] has as its system NCI/ADR-RES. Description: Induction of apoptosis in human NCI-ADR-RES cells assessed as viable cells at 8 uM incubated for 48 hrs in presence of doxorubicin by Annexin V-FITC and DAPI staining based flow cytometry (Rvb= 97.9 %). The note with it: read-out: Activity. In kind it is functional.
Another assay deals with MCF7. Kind of assay: Antiproliferative activity against human MCF7 cells assessed as inhibition of cell growth at 50 uM incubated for 48 hrs by MTT assay. In kind it is functional, cell-based.
Assay [9] relates to HCT-8. Description: Antiproliferative activity against human HCT-8 cells assessed as inhibition of cell growth at 50 uM incubated for 48 hrs by MTT assay. In kind it is functional, cell-based.
The target in assay [10] is ATP-dependent translocase ABCB1 (Homo sapiens, UniProt P08183). Description: Effect on P-gp (unknown origin) ATPase activity assessed as increased ATP consumption using Mg-ATP as substrate preincubated for 5 min followed by Mg-ATP addition and measured after 40 mins by P-gp Glo luminescence assay.
The subject of assay [11] is NCI-ADR-RES. Description: Inhibition of PI3K/AKT signaling pathway in human NCI-ADR-RES cells assessed as decrease in Bcl-xL level at 3 uM incubated for 24 to 48 hrs in presence of doxorubicin by Western blot analysis. In kind it is cell-based. The note with it: time 24-48 hrs.

Chain of ATP-dependent translocase ABCB1 (P08183 whole entry): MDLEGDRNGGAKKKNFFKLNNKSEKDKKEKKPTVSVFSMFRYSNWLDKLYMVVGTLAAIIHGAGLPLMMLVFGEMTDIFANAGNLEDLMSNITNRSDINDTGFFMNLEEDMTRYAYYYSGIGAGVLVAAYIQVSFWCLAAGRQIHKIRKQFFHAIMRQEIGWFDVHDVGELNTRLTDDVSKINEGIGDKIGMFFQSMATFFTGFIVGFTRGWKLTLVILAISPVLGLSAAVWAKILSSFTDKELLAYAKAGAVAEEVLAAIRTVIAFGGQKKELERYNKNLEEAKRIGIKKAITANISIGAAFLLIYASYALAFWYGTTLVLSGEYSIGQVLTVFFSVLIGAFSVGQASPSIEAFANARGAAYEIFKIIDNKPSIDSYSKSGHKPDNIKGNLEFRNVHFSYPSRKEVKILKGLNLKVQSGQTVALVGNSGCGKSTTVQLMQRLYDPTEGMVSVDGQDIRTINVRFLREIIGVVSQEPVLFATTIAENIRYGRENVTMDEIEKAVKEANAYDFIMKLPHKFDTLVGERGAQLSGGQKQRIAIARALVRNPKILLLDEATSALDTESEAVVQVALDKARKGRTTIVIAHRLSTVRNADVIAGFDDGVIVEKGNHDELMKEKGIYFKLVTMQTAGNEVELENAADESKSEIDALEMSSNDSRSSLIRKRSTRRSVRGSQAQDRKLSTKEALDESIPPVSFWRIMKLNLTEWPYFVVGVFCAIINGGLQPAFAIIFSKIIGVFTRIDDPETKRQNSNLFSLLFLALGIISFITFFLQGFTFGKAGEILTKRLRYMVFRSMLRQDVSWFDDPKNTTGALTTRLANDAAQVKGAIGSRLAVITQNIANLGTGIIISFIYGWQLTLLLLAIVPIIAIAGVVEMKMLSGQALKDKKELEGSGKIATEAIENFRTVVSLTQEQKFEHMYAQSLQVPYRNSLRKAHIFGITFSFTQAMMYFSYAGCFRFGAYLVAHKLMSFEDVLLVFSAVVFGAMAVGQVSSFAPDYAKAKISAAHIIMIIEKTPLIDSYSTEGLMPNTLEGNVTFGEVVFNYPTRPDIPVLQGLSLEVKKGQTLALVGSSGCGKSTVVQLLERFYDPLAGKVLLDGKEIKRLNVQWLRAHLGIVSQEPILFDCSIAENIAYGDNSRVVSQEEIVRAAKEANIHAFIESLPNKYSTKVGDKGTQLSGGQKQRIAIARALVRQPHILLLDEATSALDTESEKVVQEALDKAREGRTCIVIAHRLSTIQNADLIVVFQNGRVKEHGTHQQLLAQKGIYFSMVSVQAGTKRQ

On to `C=C1[C@H](OC(C)=O)[C@@H](OC(C)=O)[C@@H](OC(C)=O)C(C)(C)/C=C/[C@H](C)[C@H](OC(=O)c2ccccc2)[C@@]2(O)C[C@@](C)(OC(=O)C(C)(C)C)[C@H](OC(C)=O)[C@@H]2[C@H]1OCC(C)C`, for which the Activity is listed as 8.03% in the assay on NCI/ADR-RES [1], 0.67% in the assay with NCI/ADR-RES [3], 10.7% in the assay with NCI/ADR-RES [6] and 0.43% in the assay with NCI/ADR-RES [7]. Also, the outcome in the assay with NCI/ADR-RES [2], in the assay with HCT-8 [5], with MCF7 and with HCT-8 [9] was inactive. Besides, the inhibition result with NCI-ADR-RES [4] and in the assay on NCI-ADR-RES [11] was “Active” in each case. The viability at 8 µM in the assay with NCI/ADR-RES [8] is 65%. In assay [10], the EC50 is 357 nM.
